# Test results: US20120009280A1, “METHOD OF REDUCING THE RATE OF DEGRADATION OF A BIOLOGICAL MATERIAL” (Bio-Energy Ingredients Limited, priority 2009, published 2012)
# Key:
# [1] = pH of suspensions of grain samples in distilled water or PBS; settings: 1% (w/w) in distilled water
# Method: The untreated sample (A) was compared visually against the corresponding quicklime-treated sample (B).
# On Day 7, 10 g amounts of each sample were suspended in either 90 ml PBS or 90 ml sterile distilled water and shaken for 10 minutes. The pH of each suspension was then measured and compared.
# On Day 9, 10 g of each sample was suspended in 90 ml PBS and shaken for 10 minutes. The pH was measured.
# total micro-organism = experiment: Total microbial (plate) count of spent brewer's / wet distiller's grains stored at ambient temperature; assay type: cell-based; design: total microbial count: unit: cfu/gram; settings: for preservation effect period: Example 18; for total microbial count: powder 10% (w/w)
# Text: Samples of spent brewer's grains were drawn from the discharge line of a brewery in South Africa. The samples, packed in dry ice in a cold box, were transported over a distance of approximately 40 kilometres to a laboratory. At the laboratory, the samples were thoroughly mixed and initially split into a first portion (Portion 1) and a second portion (Portion 2). The second portion was about twice the size of the first. Portion 1 was left untreated. Material produced from Portion 1 and Portion 2 is designated below using the code “AR” (as received).
# Portion 2 was placed on a clean, standard, laboratory screen deck with 1.4 mm apertures supported from below. As much water as possible was manually squeezed out with a clean flat plastic disc and the sample was then manually remixed after the squeezing. The squeezed material was then split into a third portion (Portion 3) and a fourth portion (Portion 4) of approximately the same size. Material produced from Portion 3 and Portion 4 is designated below using the code “SO” (squeezed).
# Portion 4 was added to a high speed kitchen food-shredder and shredded for about two minutes. The shredded material was then returned to the 1.4 mm aperture screen and squeezed again, as described above, and manually remixed again after the second squeezing to produce a shredded and squeezed portion (Portion 5). Material produced from Portion 5 is designated below using the code “SH” (shredded).
# Samples of Portion 1 (“AR”), Portion 3 (“SO”) and Portion 5 (“SH”) were then delivered to a microbiological testing facility about 15 kilometres from the treatment laboratory. Each was tested for initial total microbial, yeast and mould counts, respectively.
# Separate untreated samples were similarly stored under insect-proof screens at ambient temperature for seven days (as shown in Tables 1 and 2). During the trial period the ambient temperature ranged from 11 to 33 degrees C.
# After exposure to the environment for seven days, all of the samples were tested at a South African National Accreditation System (SANAS) approved microbiological testing facility. Each was tested for total micro-organism, yeast and mould counts to determine the affect of the various treatments.
# Samples of spent brewer's grains were drawn from the discharge line of a brewery in South Africa.
# At the laboratory, the samples were thoroughly mixed and initially split into a first portion (Portion 1) and a second portion (Portion 2). Portion 1 was left untreated. A sample of Portion 1, was delivered immediately to a microbiological testing facility about 15 kilometres away from the treatment laboratory and was tested for initial total microbial, yeast and mould counts, respectively.
# Samples from Portion 2 were subjected to treatment with varying amounts of a powdered, commercially-available calcium oxide containing approximately 94% calcium oxide (CaO) as shown in Table 32. The treatments varied from 2.5 to 10% (w/w) calcium oxide addition. The samples were stored in batches (according to the calcium oxide treatment) under insect-proof screens at ambient temperature for fifty six days. […] During the trial period the ambient temperature ranged from 10 to 30 degrees C. As this period was the southern hemisphere spring/early summer, the humidity as well as ambient temperatures varied widely.
# Samples from each treatment were drawn every seven days. No further calcium oxide treatment or agitation took place after the initial mix. In each case the entire sample was isolated and delivered to the microbiological testing facility.
# (§1) In this trial the same source of wet distiller's grains (again with now partial water removal prior to treatment) was treated.
# as §1
# [2] = 10% Ca-DGO (w/w) granules, week 1
# [3] = 10% Ca-DGO (w/w) granules, week 2
# [4] = 10% Ca-DGO (w/w) granules, week 3
# [5] = 10% Ca-DGO (w/w) granules, week 4
# [6] = 10% Ca-DGO (w/w) granules, week 5
# [7] = 10% Ca-DGO (w/w) powder, week 1
# [8] = 10% Ca-DGO (w/w) powder, week 2
# [9] = 10% Ca-DGO (w/w) powder, week 3
# [10] = 10% Ca-DGO (w/w) powder, week 4
# [11] = 10% Ca-DGO (w/w) powder, week 5
# [12] = 20% Ca-DGO (w/w) powder, week 1
# [13] = 20% Ca-DGO (w/w) powder, week 2
# [14] = 20% Ca-DGO (w/w) powder, week 3
# [15] = 20% Ca-DGO (w/w) powder, week 4
# [16] = 20% Ca-DGO (w/w) powder, week 5
# [17] = 40% Ca-DGO (w/w) powder, week 1
# [18] = 40% Ca-DGO (w/w) powder, week 2
# [19] = 40% Ca-DGO (w/w) powder, week 3
# [20] = 40% Ca-DGO (w/w) powder, week 4
# [21] = 40% Ca-DGO (w/w) powder, week 5
smiles,measurement,setting,value
[Ca+2].[O-]CC(O)CO.[O-]CC(O)CO [calcium diglyceroxide],pH,[1]; [2],7.88
same,pH,[1]; [3],7.71
same,pH,[1]; [4],7.44
same,pH,[1]; [5],7.14
same,pH,[1]; [6],8.37
same,pH,[1]; [7],9.43
same,pH,[1]; [8],7.32
same,pH,[1]; [9],7.31
same,pH,[1]; [10],8.01
same,pH,[1]; [11],7.23
same,pH,[1]; [12],11.47
same,pH,[1]; [13],11.16
same,pH,[1]; [14],12.00
same,pH,[1]; [15],11.23
same,pH,[1]; [16],10.83
same,pH,[1]; [17],11.66
same,pH,[1]; [18],11.50
same,pH,[1]; [19],12.30
same,pH,[1]; [20],11.52
same,pH,[1]; [21],11.13
same,Total plate count,total micro-organism; [2],11000 cfu/gram
same,Total plate count,total micro-organism; [3],<10 cfu/gram
same,Total plate count,total micro-organism; [4],540 cfu/gram
same,Total plate count,total micro-organism; [5],60 cfu/gram
same,Total plate count,total micro-organism; [6],650 cfu/gram
same,Total plate count,total micro-organism; [7],610 cfu/gram
same,Total plate count,total micro-organism; [8],<10 cfu/gram
same,Total plate count,total micro-organism; [9],580 cfu/gram
same,Total plate count,total micro-organism; [10],5000 cfu/gram
same,Total plate count,total micro-organism; [11],36000 cfu/gram
same,Total plate count,total micro-organism; [12],80 cfu/gram
same,Total plate count,total micro-organism; [13],310 cfu/gram
same,Total plate count,total micro-organism; [14],140 cfu/gram
same,Total plate count,total micro-organism; [15],40 cfu/gram
same,Total plate count,total micro-organism; [16],10 cfu/gram
same,Total plate count,total micro-organism; [17],40 cfu/gram
same,Total plate count,total micro-organism; [18],450 cfu/gram
same,Total plate count,total micro-organism; [19],103 cfu/gram
same,Total plate count,total micro-organism; [20],10 cfu/gram
same,Total plate count,total micro-organism; [21],10 cfu/gram
same,preservation effect period,total micro-organism; granule form 15% (w/w),9 week
same,total microbial count,total micro-organism; 3 week time point,580
same,total microbial count,total micro-organism; week 4,"5,000"
same,total microbial count,total micro-organism; week 5,"36,000"
same,preservation effect period,total micro-organism; powder form 15% (w/w),9 week
